Measurements: US5763464A, “Retroviral agents containing anthranilamide, substituted benzamide and other subunits, and methods of using same” (The United States of America as represented by the …, priority 1995, dated 1998)
Entries after “also recorded” stand apart in the source; their conditions may differ. Like-named read-outs stand apart in the source and are kept apart here.

How the values were obtained:
in vitro = conditions: human, cem cells
HIV-1 = conditions: cited from earlier work
CEM cells = assay: Toxicity (IC50) in CEM cells, soluble formazan assay
[1] = test system: HIV-1 (CEM cells chronically infected with HIV-1); assay: Anti-retroviral activity in CEM cells chronically infected with HIV-1, soluble formazan assay; type: cell-based; conditions: Human immunodeficiency virus 1, CCRF-CEM
Method: Using the soluble formazan assay described by Weislow et al. (J. Nat'l. Cancer Inst., 81, 577-586 (1989)), CEM cells chronically infected with HIV-1 were used to assay the anti-retroviral activity of test compounds described herein. The concentration of compound that inhibits 50% of viral activity (EC50; determined as described in Weislow et al. (1989), supra) and the inhibition constant (Ki, as defined in Example 7) for the compound were determined.

α-1 acid glycoprotein = assay: In vitro activity in the presence of α-1 acid glycoprotein
[2] = Toxicity (IC50) in CEM cells, soluble formazan assay; conditions: human, cem cells
[3] = molecular target: T1, HIV-1 protease (wild-type, WT) (Human immunodeficiency virus type 1 group M subtype B, UniProt P04585); assay: biochemical
T1 construct: purified HIV-1 protease (wild-type, WT)
Method: The inhibition constants (Ki) for the compounds of the above examples were determined using purified HIV-1 protease (wild-type, WT) (Tables I, II and III). Ki is an inhibition constant of a given compound as derived by enzyme kinetics. A low Ki represents a high affinity of the compound for the enzyme, i.e., tight binding or low dissociation. Inhibition of the cleavage was assayed using a fluorogenic substrate available from Molecular Probes, Inc., Eugene, Oreg., and described in Kageyama et al., Antimicrob. Agents. Chemother., 37, 272 (1993), and a fluorogenic substrate available from Bachem California, Torrance, Calif., and described in Kageyama et al. (1993), supra. Percent inhibition is the percentage inhibition of an enzyme's activity by a given compound at a given concentration.

[4] = comparison table, read-out: EC50
[5] = comparison table, literature values by footnote

Compound: CC(C)[C@H](NC(=O)N(C)Cc1ccccn1)C(=O)N[C@@H](Cc1ccccc1)[C@H](O)[C@H](O)[C@H](Cc1ccccc1)NC(=O)[C@@H](NC(=O)N(C)Cc1ccccn1)C(C)C [A-77003, reference compound]
- selectivity ratio (in vitro): > 71
- EC50 (HIV-1; Example 13, literature values): 200 nM
- IC50 (CEM cells; Homo sapiens, CCRF-CEM): > 10 µM
- EC50 [1, 4]: 140 nM

Compound: CC(C)C(NC(=O)OCc1ccccc1)C(=O)N[C@@H](Cc1ccccc1)[C@@H](O)[C@@H](O)[C@H](Cc1ccccc1)NC(=O)c1ccccc1NC(=O)OCc1ccccn1 (stereo partly shown) [DN-14]
- in vitro activity in presence of α-1 acid glycoprotein (α-1 acid glycoprotein): not affected by the presence of α-1 acid glycoprotein; also recorded: unaffected in the presence of α-1 acid glycoprotein
- selectivity ratio [2]: > 16700
- toxicity (from IC50/EC50) (CEM cells; Example 13): not toxic
- IC50 (CEM cells; Example 13, unit inferred): > 100 µM
- IC50 (CEM cells; Homo sapiens, CCRF-CEM): > 100 µM
- IC50 (CEM cells; comparison table): > 100 µM
- EC50 ([1]; Example 13, CEM cells): 6.5 nM
- EC50 ([1]; comparison table): 6 nM

Compound: CC(C)(C)NC(=O)[C@@H]1CN(Cc2cccnc2)CCN1C[C@@H](O)C[C@@H](Cc1ccccc1)C(=O)N[C@H]1c2ccccc2C[C@H]1O [Indinavir]
- EC50 (HIV-1; [5]): 50 nM

Compound: CSC[C@H](NC(=O)COc1cccc2cnccc12)C(=O)N[C@@H](Cc1ccccc1)[C@H](O)C(=O)N1CSC[C@H]1C(=O)NC(C)(C)C [KNI-272, reference compound]
- selectivity ratio (in vitro): > 3570
- IC50 (CEM cells; Homo sapiens, CCRF-CEM): > 100 µM
- EC50 ([1]; Example 13, CEM cells, read-out: EC50): 4.2 nM
- EC50 [1, 4]: 28 nM

Compound: O=C(N[C@@H](Cc1ccccc1)[C@H](O)[C@H](O)[C@H](Cc1ccccc1)NC(=O)O[C@H]1CCOC1)O[C@H]1CCOC1 [RS-205]
- IC50 (CEM cells; Homo sapiens, CCRF-CEM): > 150 µM
- Ki [3]: 4.6 nM
- EC50 ([1]; Table I): 16000 nM

Compound: Cc1c(O)cccc1C(=O)N[C@@H](Cc1ccccc1)[C@@H](O)C[C@H](Cc1ccccc1)NC(=O)OC(C)(C)C [RS-208, (2S,3S,5S)-2-[N-[(3-hydroxy-2-methylphenyl)carbonyl]amino]-5-[N-(tert-butyloxycarbonyl)amino]-1,6-diphenyl-3-hydroxy hexane]
- IC50 (CEM cells; Homo sapiens, CCRF-CEM): 23 µM
- Ki ([3]; Table I, unit inferred, read-out: Ki): 0.213 nM
- EC50 ([1]; Table I, read-out: EC50): 470 nM

Compound: CC(C)c1nc(CN(C)C(=O)N[C@H](C(=O)N[C@@H](Cc2ccccc2)C[C@H](O)[C@H](Cc2ccccc2)NC(=O)OCc2cncs2)C(C)C)cs1 [Ritonavir]
- EC50 (HIV-1; Example 13, literature values): 36 nM
- EC50 (HIV-1; [5]): 36 nM

Compound: CC(C)(C)NC(=O)[C@@H]1C[C@@H]2CCCC[C@@H]2CN1C[C@@H](O)[C@H](Cc1ccccc1)NC(=O)[C@H](CC(N)=O)NC(=O)c1ccc2ccccc2n1 [Sequinavir]
- EC50 (HIV-1; Example 13, literature values): 10 nM
- EC50 (HIV-1; [5]): 10 nM

Compound: CC(C)CN(C[C@@H](O)[C@H](Cc1ccccc1)NC(=O)O[C@H]1CCOC1)S(=O)(=O)c1ccc(N)cc1 [VX-478]
- EC90 (HIV-1; comparison table, Kim et al., 1995, read-out: EC90 (EC50 column, footnote b)): 40 nM
